pIC50: −log10 of the molar value.

Consider 24 compounds from patent US9382258B2, “Agents for treating pain and uses thereof” (AbbVie Inc., priority 2012, dated 2016).

For this experiment, the target named is T1, human Cav2.2 (Homo sapiens, UniProt Q00975).
T1 construct: cells endogenously expressing human Cav2.2; endogenous in cells; host or cells: IMR32 cells
T1 sequence (Q00975 whole entry): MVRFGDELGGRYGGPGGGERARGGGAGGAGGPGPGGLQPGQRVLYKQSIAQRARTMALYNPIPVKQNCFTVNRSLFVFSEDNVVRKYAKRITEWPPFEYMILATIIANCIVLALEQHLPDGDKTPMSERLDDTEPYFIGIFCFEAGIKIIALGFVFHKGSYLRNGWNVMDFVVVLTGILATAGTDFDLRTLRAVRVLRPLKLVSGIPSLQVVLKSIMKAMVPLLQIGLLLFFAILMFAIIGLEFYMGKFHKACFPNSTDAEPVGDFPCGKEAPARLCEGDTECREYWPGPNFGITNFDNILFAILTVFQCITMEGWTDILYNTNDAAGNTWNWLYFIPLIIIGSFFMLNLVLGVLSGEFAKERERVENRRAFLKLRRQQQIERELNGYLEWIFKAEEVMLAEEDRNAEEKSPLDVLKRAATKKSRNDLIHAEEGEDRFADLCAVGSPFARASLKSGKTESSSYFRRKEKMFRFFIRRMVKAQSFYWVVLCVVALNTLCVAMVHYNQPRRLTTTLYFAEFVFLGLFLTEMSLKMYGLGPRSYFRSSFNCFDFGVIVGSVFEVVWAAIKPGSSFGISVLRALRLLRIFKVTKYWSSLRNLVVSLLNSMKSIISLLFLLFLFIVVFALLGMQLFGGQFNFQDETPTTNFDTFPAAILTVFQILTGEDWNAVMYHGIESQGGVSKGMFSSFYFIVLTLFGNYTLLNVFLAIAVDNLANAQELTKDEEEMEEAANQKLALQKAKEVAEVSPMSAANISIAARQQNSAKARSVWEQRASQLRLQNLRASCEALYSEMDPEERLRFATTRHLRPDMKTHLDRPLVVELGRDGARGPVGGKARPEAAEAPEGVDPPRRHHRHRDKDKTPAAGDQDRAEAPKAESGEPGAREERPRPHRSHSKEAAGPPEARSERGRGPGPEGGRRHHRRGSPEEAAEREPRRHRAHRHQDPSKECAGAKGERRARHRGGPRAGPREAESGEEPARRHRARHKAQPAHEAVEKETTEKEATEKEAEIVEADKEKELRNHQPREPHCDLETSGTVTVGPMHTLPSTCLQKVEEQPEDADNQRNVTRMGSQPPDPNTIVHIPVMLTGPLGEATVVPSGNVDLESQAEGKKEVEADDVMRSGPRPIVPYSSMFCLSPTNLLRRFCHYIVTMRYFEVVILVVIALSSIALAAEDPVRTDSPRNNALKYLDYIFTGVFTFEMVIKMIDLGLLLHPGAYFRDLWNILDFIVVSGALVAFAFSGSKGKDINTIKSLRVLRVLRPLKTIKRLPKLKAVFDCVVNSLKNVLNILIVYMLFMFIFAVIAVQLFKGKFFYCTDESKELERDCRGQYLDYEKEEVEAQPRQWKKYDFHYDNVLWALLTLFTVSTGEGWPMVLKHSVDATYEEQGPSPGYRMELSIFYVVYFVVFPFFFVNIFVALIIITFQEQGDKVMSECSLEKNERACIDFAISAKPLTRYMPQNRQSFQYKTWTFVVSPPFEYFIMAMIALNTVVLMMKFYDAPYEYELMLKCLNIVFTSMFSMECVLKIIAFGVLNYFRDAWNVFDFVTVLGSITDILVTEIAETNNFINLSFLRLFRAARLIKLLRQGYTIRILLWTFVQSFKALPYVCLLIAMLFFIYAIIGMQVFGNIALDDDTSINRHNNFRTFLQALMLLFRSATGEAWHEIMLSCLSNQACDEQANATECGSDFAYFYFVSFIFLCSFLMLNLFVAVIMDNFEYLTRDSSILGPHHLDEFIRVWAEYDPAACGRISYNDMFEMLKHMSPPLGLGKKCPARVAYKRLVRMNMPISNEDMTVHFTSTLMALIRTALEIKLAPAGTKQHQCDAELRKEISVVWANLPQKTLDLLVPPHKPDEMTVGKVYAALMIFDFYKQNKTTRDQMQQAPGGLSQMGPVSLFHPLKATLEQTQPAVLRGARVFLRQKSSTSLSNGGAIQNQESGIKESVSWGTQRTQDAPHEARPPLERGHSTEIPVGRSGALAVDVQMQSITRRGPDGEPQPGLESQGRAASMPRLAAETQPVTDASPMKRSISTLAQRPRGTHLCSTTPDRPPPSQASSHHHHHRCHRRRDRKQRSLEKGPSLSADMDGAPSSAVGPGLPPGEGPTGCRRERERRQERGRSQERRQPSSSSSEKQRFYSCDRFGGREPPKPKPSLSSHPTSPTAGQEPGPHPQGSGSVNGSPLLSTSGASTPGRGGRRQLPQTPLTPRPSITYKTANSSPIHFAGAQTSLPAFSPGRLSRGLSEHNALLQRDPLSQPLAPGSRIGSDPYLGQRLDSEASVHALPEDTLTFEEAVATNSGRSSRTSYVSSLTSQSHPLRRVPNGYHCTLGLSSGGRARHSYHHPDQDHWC
T1 sequence (P54284 whole entry partner): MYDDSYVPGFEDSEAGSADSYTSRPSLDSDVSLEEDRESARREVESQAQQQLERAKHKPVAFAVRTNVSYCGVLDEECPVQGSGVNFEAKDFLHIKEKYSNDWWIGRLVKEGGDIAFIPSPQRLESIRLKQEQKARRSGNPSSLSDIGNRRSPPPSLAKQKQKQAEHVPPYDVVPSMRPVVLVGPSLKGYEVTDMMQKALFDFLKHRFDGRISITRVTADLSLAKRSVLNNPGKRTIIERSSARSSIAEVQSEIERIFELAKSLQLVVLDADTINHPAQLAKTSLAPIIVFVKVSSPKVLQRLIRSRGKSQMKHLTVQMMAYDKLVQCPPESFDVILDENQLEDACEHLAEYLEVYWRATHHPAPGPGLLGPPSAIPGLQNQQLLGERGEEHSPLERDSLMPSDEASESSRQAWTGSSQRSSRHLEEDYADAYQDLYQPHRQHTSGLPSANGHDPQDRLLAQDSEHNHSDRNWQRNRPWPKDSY
T1 sequence (P54289 25-956 partner limits assumed): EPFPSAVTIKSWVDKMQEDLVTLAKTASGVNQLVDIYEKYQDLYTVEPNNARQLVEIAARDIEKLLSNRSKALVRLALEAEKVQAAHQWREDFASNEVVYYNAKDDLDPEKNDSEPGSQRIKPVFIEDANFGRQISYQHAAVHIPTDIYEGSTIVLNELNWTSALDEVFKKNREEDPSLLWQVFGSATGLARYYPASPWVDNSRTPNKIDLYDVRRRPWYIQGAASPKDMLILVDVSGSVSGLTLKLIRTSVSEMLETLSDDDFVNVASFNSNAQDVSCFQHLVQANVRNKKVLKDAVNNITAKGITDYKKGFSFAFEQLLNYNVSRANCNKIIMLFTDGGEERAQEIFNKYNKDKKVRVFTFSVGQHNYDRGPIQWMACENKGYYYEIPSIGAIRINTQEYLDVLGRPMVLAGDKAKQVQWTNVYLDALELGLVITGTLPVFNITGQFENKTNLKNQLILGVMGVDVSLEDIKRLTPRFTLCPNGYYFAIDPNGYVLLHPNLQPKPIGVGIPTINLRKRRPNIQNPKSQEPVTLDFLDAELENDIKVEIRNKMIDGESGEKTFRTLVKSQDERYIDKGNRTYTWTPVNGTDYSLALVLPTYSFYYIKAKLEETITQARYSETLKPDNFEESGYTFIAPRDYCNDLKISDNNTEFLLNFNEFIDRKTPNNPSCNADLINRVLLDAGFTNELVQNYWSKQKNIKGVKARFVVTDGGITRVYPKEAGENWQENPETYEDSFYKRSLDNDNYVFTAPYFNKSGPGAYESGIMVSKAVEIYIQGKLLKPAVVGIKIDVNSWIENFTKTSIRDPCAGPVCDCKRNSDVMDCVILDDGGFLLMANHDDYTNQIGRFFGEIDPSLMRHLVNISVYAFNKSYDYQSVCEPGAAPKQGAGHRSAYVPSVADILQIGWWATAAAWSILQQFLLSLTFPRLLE
T1 sequence (P54289 957-1103 partner limits assumed): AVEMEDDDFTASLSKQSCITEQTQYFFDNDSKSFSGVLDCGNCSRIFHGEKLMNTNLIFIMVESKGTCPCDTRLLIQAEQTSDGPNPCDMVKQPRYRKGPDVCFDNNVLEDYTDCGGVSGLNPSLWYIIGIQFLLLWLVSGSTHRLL
Briefly: Calcium flux (FLIPR, Calcium 4 dye) in IMR32 cells endogenously expressing human Cav2.2. In kind it is cell-based. As to conditions: 60 minute pre-incubation, 2 μM nifedipine to block L-type channels, depolarized with 80 mM KCl, 5 mM CaCl2, average of n≥2 runs unless marked *. How it is done: Compounds were tested for effect on calcium flux in cells endogenously expressing human Cav2.2. Specifically, IMR32 cells endogenously expressing human Cav2.2 were assayed for Ca^2+ influx using a no-wash calcium indicator dye (Calcium 4 dye: Molecular Probes) and FLIPR technology (Lubin, M L; et al. Assay and Drug Development Technologies, 2006, 4(6), 689-694). The IMR32 cells were maintained in MEM media containing 10% (v/v) FBS, 1% (v/v) antibiotic/antimitotic, 1% (v/v) sodium pyruvate and 1% (v/v) MEM NEAA. Following dissociation in 0.05% (v/v) trypsin/EDTA, cells were seeded into black 1×96-well plates (Corning Cellbind) at a density of 1−1.2×10^5 cells/well and incubated in the maintenance media above for 48 hours at 37° C. Immediately prior to performing the assay the media was removed and cells were loaded for 1.5 hours with 1× Calcium 4 dye prepared in HBSS (137 mM NaCl, 5.4 mM KCl, 0.25 mM Na2HPO4, 0.44 mM KH2PO4, 1.3 mM CaCl2, 1 mM MgSO4, 4.2 mM NaHCO3) containing HEPES pH 7.4 at room temperature. After dye loading and a subsequent 60 minute pre-incubation with compounds (full log dilutions from 10 μM to 0.1 nM) in the presence of 1.3 mM CaCl2 and 2 μM nifedipine to block endogenous L-type channels, the external Ca^2+ concentration was increased to 5 mM CaCl2 and the cells concomitantly depolarized with 80 mM KCl to assay channel activity.
To determine the IC50 values, the percent inhibition of the compound at each concentration was determined relative to the activity in the absence of inhibitor, and data was fitted using non-linear regression sigmoidal dose response curve analysis with GraphPad Prism®. Unless otherwise indicated (*), the reported values are average values from at least two runs (i.e., n≧2).
With `O=S(=O)(c1ccc(C(F)(F)F)cc1)N1CCCN2C[C@H](Oc3cnc(C4CC4)cn3)C[C@H]2C1` [Example 2, (8R,9aS)-8-[(5-cyclopropylpyrazin-2-yl)oxy]-2-{[4-(trifluoromethyl)phenyl]sulfonyl}octahydro-1H-pyrrolo[1,2-a][1,4]diazepane], the negative-log IC50 (pIC50) (as a rule, the negative decadic logarithm of the IC50, by convention in mol/L) was 6.70.
For the compound `O=C1[C@@H](Oc2ccc(C(F)(F)F)cn2)C[C@H]2CN(S(=O)(=O)c3cccc(C(F)(F)F)c3)CCCN12` [Example 3, (8S,9aS)-2-{[3-(trifluoromethyl)phenyl]sulfonyl}-8-{[5-(trifluoromethyl)pyridin-2-yl]oxy}octahydro-7H-pyrrolo[1,2-a][1,4]diazepin-7-one], the negative logarithm of the IC50 (pIC50) was 5.90.
For `O=C1[C@H](Oc2ccc(C(F)(F)F)cn2)C[C@H]2CN(S(=O)(=O)c3cccc(C(F)(F)F)c3)CCCN12` [Example 4, (8R,9aS)-2-{[3-(trifluoromethyl)phenyl]sulfonyl}-8-{[5-(trifluoromethyl)pyridin-2-yl]oxy}octahydro-7H-pyrrolo[1,2-a][1,4]diazepin-7-one] the value was 6.06; for `O=C1[C@@H](Oc2ccc(C(F)(F)F)cn2)C[C@H]2CN(S(=O)(=O)c3ccc(C(F)(F)F)cc3)CCCN12` [Example 5, (8S,9aS)-2-{[4-(trifluoromethyl)phenyl]sulfonyl}-8-{[5-(trifluoromethyl)pyridin-2-yl]oxy}octahydro-7H-pyrrolo[1,2-a][1,4]diazepin-7-one], 5.75; for `O=C1[C@H](Oc2ccc(C(F)(F)F)cn2)C[C@H]2CN(S(=O)(=O)c3ccc(C(F)(F)F)cc3)CCCN12` [Example 6, (8R,9aS)-2-{[4-(trifluoromethyl)phenyl]sulfonyl}-8-{[5-(trifluoromethyl)pyridin-2-yl]oxy}octahydro-7H-pyrrolo[1,2-a][1,4]diazepin-7-one], 6.04.
Under `O=C(c1ccc(F)cc1)N1CCCN2C[C@H](Oc3cnc(C4CC4)cn3)C[C@H]2C1` [Example 8, [(8R,9aS)-8-[(5-cyclopropylpyrazin-2-yl)oxy]hexahydro-1H-pyrrolo[1,2-a][1,4]diazepin-2(3H)-yl](4-fluorophenyl)methanone] stands 5.52; under `O=C(c1cccc(OC(F)(F)F)c1)N1CCCN2C[C@H](Oc3cnc(C4CC4)cn3)C[C@H]2C1` [Example 9, [(8R,9aS)-8-[(5-cyclopropylpyrazin-2-yl)oxy]hexahydro-1H-pyrrolo[1,2-a][1,4]diazepin-2(3H)-yl][3-(trifluoromethoxy)phenyl]methanone], 5.87; under `O=C(c1cccc(C(F)(F)F)c1F)N1CCCN2C[C@H](Oc3cnc(C4CC4)cn3)C[C@H]2C1` [Example 10, [(8R,9aS)-8-[(5-cyclopropylpyrazin-2-yl)oxy]hexahydro-1H-pyrrolo[1,2-a][1,4]diazepin-2(3H)-yl][2-fluoro-3-(trifluoromethyl)phenyl]methanone], 6.04.
For `O=C(c1ccc(C(F)(F)F)cn1)N1CCCN2C[C@H](Oc3cnc(C4CC4)cn3)C[C@H]2C1` [Example 11, [(8R,9aS)-8-[(5-cyclopropylpyrazin-2-yl)oxy]hexahydro-1H-pyrrolo[1,2-a][1,4]diazepin-2(3H)-yl][5-(trifluoromethyl)pyridin-2-yl]methanone] the value was 5.03.
For the compound `O=C(c1cccc(C(F)(F)F)n1)N1CCCN2C[C@H](Oc3cnc(C4CC4)cn3)C[C@H]2C1` [Example 12, [(8R,9aS)-8-[(5-cyclopropylpyrazin-2-yl)oxy]hexahydro-1H-pyrrolo[1,2-a][1,4]diazepin-2(3H)-yl][6-(trifluoromethyl)pyridin-2-yl]methanone], the negative logarithm of the IC50 (pIC50) is 5.21.
Under `O=C(c1ccc(F)c(C(F)(F)F)c1)N1CCCN2C[C@H](Oc3cnc(C4CC4)cn3)C[C@H]2C1` [Example 14, [(8R,9aS)-8-[(5-cyclopropylpyrazin-2-yl)oxy]hexahydro-1H-pyrrolo[1,2-a][1,4]diazepin-2(3H)-yl][4-fluoro-3-(trifluoromethyl)phenyl]methanone] stands 5.84; under `O=C(c1ccc(C(F)(F)F)c(F)c1)N1CCCN2C[C@H](Oc3cnc(C4CC4)cn3)C[C@H]2C1` [Example 15, [(8R,9aS)-8-[(5-cyclopropylpyrazin-2-yl)oxy]hexahydro-1H-pyrrolo[1,2-a][1,4]diazepin-2(3H)-yl][3-fluoro-4-(trifluoromethyl)phenyl]methanone], 5.88.
`O=C(c1ccc(F)c(Cl)c1)N1CCCN2C[C@H](Oc3cnc(C4CC4)cn3)C[C@H]2C1` [Example 16, (3-chloro-4-fluorophenyl)[(8R,9aS)-8-[(5-cyclopropylpyrazin-2-yl)oxy]hexahydro-1H-pyrrolo[1,2-a][1,4]diazepin-2(3H)-yl]methanone]: the pIC50 was 5.64.
Under `O=C(c1cc(C(F)(F)F)ccc1F)N1CCCN2C[C@H](Oc3cnc(C4CC4)cn3)C[C@H]2C1` [Example 17, [(8R,9aS)-8-[(5-cyclopropylpyrazin-2-yl)oxy]hexahydro-1H-pyrrolo[1,2-a][1,4]diazepin-2(3H)-yl][2-fluoro-5-(trifluoromethyl)phenyl]methanone] stands 5.80.
For `O=C(c1ccc(C(F)(F)F)cc1F)N1CCCN2C[C@H](Oc3cnc(C4CC4)cn3)C[C@H]2C1` [Example 18, [(8R,9aS)-8-[(5-cyclopropylpyrazin-2-yl)oxy]hexahydro-1H-pyrrolo[1,2-a][1,4]diazepin-2(3H)-yl][2-fluoro-4-(trifluoromethyl)phenyl]methanone], the pIC50 is 5.92.
Under `FC(F)(F)c1cccc(N2CCCN3C[C@H](Oc4cnc(C5CC5)cn4)C[C@H]3C2)n1` [Example 20, (8R,9aS)-8-[(5-cyclopropylpyrazin-2-yl)oxy]-2-[6-(trifluoromethyl)pyridin-2-yl]octahydro-1H-pyrrolo[1,2-a][1,4]diazepane] stands 6.12; under `O=C1[C@H](Oc2cnc(C3CC3)cn2)C[C@H]2CN(c3ccc(C(F)(F)F)cn3)CCCN12` [Example 21, (8R,9aS)-8-[(5-cyclopropylpyrazin-2-yl)oxy]-2-[5-(trifluoromethyl)pyridin-2-yl]octahydro-7H-pyrrolo[1,2-a][1,4]diazepin-7-one], 5.46; under `O=C1[C@@H]2C[C@@H](Oc3cnc(C4CC4)cn3)CN2CCCN1Cc1cccc(C(F)(F)F)c1` [Example 22, (8R,9aS)-8-[(5-cyclopropylpyrazin-2-yl)oxy]-2-[3-(trifluoromethyl)benzyl]octahydro-1H-pyrrolo[1,2-a][1,4]diazepin-1-one], 5.76.
Under `O=C1[C@@H]2C[C@@H](Oc3cnc(C4CC4)cn3)CN2CCCN1Cc1ccc(C(F)(F)F)cc1` [Example 23, (8R,9aS)-8-[(5-cyclopropylpyrazin-2-yl)oxy]-2-[4-(trifluoromethyl)benzyl]octahydro-1H-pyrrolo[1,2-a][1,4]diazepin-1-one] stands 6.01; under `O=C1[C@H]2C[C@@H](Oc3cnc(C4CC4)cn3)CN2CCCN1Cc1ccc(C(F)(F)F)cc1` [Example 24, (8R,9aR)-8-[(5-cyclopropylpyrazin-2-yl)oxy]-2-[4-(trifluoromethyl)benzyl]octahydro-1H-pyrrolo[1,2-a][1,4]diazepin-1-one], 5.53.
Under `O=C1[C@@H]2C[C@@H](Oc3cnc(C4CC4)cn3)CN2CCCN1Cc1ccc(C(F)(F)F)c(F)c1` [Example 25, (8R,9aS)-8-[(5-cyclopropylpyrazin-2-yl)oxy]-2-[3-fluoro-4-(trifluoromethyl)benzyl]octahydro-1H-pyrrolo[1,2-a][1,4]diazepin-1-one] stands 5.92; under `O=C1[C@@H]2C[C@@H](Oc3cnc(C4CC4)cn3)CN2CCCN1Cc1ccc(F)c(C(F)(F)F)c1` [Example 26, (8R,9aS)-8-[(5-cyclopropylpyrazin-2-yl)oxy]-2-[4-fluoro-3-(trifluoromethyl)benzyl]octahydro-1H-pyrrolo[1,2-a][1,4]diazepin-1-one], 5.96; under `O=C1[C@@H]2C[C@@H](Oc3cnc(C4CC4)cn3)CN2CCCN1c1cccc(C(F)(F)F)c1` [Example 27, (8R,9aS)-8-[(5-cyclopropylpyrazin-2-yl)oxy]-2-[3-(trifluoromethyl)phenyl]octahydro-1H-pyrrolo[1,2-a][1,4]diazepin-1-one], 5.00.
Regarding `O=C1CCN(S(=O)(=O)c2cccc(C(F)(F)F)c2)C[C@@H]2C[C@@H](Oc3cnc(C4CC4)cn3)CN12` [Example 28, (8R,9aS)-8-[(5-cyclopropylpyrazin-2-yl)oxy]-2-{[3-(trifluoromethyl)phenyl]sulfonyl}octahydro-5H-pyrrolo[1,2-a][1,4]diazepin-5-one], the pIC50 is 5.74.
